Laboratory results: paper PMC9482650, “Quantitative fragmentomics allow affinity mapping of interactomes” (Nature Communications, 2022)
Read-outs that look alike come from different tables or passages of the source. Numbered stars: 1 amine (or outer) side, 2 acyl side, 3 side chain; on linkers, the order of the positions; unused ones are H or OH. Ends that are not written are not given here. Peptide text beside a SMILES is read from it. * marks the point of attachment. X1 = O=C(CCCC[C@@H]1SC[C@@H]2NC(=O)N[C@@H]21)NCCCOCCOCCOCCCN*; Suc = O=C(CCC(=O)[*:2])[*:1]

Key:
MAGI2_2 PDZ = MAGI2_2 PDZ (Homo sapiens, UniProt Q86UL8); assay: Competitive fluorescence polarization (FP) assay; type: binding; conditions: read-out: pKd FP (converted)
DLG4_3 PDZ = DLG4_3 PDZ (Homo sapiens, UniProt P78352); assay: Competitive fluorescence polarization (FP) assay; type: binding; conditions: read-out: pKd FP (converted)
SNX27 PDZ = SNX27 PDZ (Homo sapiens, UniProt Q96L92); assay: Holdup assay; type: binding
DLG1_2 PDZ = DLG1_2 PDZ (Homo sapiens, UniProt Q12959); assay: Holdup assay; type: binding
DLG1_1 PDZ = DLG1_1 PDZ (Homo sapiens, UniProt Q12959); assay: Holdup assay; type: binding
SCRIB_1 PDZ = SCRIB_1 PDZ (Homo sapiens, UniProt Q14160); assay: Holdup assay; type: binding
TX1BP3 PDZ = target: T1, TX1BP3 PDZ (Homo sapiens, UniProt O14907); assay: Holdup assay; type: binding
T1 sequence (O14907 15-112 limits assumed): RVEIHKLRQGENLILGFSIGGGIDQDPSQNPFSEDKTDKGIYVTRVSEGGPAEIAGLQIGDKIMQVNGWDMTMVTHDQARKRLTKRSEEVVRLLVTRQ

SCRIB2 PDZ = target: T2, SCRIB2 PDZ (Homo sapiens, UniProt Q14160); assay: Holdup assay; type: binding
T2 sequence (Q14160 862-950 limits assumed): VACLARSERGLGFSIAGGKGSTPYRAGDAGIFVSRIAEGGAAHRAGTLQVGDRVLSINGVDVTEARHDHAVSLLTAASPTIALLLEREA

HaCat cell extract preys = assay: PDZ-AP-MS, biotinylated MBP-PDZ baits; type: binding, human; conditions: for Difference log2: enrichment of prey
Procedure: (§1) For PDZ-AP-MS experiments, PDZ domains were cloned as His6-AviTag-MBP-PDZ constructs. For co-expression with BirA, E. coli BL21(DE3) cells were co-transformed with His6-AviTag-MBP, or His6-AviTag-MBP-PDZ-coding and PET21a-BirA (Addgene #20857) plasmids. Simultaneously to IPTG induction, 50 µM biotin was added to the media. After cell harvesting, the lysis buffer was also supplemented with 50 µM biotin. Otherwise, expression and double affinity purification was identical as previously described in details.
(§2) For PBM-AP-MS experiments, 30 μl streptavidin resin was mixed with biotin or peptide at 50–60 μM concentration in 6–6.5 resin volume for 60 min to achieve resin saturation. For PDZ-AP-MS experiments, 30 μl streptavidin resin was mixed with biotinylated MBP or MBP-PDZ at 40-50 μM concentration in >1000× resin volume for 60 min to achieve resin saturation. After saturation, resins were washed a single time (ten resin volume, holdup buffer), and were depleted with biotin (1 mM biotin, 5–10 resin volume, 10 min). Finally, resins were washed two times. 0.5 ml 2 mg/ml cell lysate was added to the dry resin (1 mg total input) and were incubated at 4 °C for 2 h. Then, the beads were washed three times with 10 resin volume buffer containing: 50 mM TRIS pH 8.5, 150 mM NaCl, 1% TritonX-100, 10× complete EDTA-free protease inhibitor cocktail, 2 mM EDTA, 1 mM TCEP. Then, the beads were washed two times with ten resin volume buffer containing: 50 mM TRIS pH 8.5, 150 mM NaCl, 1 mM TCEP. Finally, captured protein was eluted from the resin in two steps and the eluted fractions were pooled. For each elution the beads were incubated for 30 min with three resin volume buffer containing: 20 mM TRIS pH8.5, 100 mM NaCl, 500 μM TCEP, 8 M Urea. Between each step, the beads were separated by mild centrifugation and the supernatant was removed by gentle pipetting.
(§3) The samples were precipitated with TCA 20% overnight at 4 °C and centrifuged at 14,000 rpm for 10 min at 4 °C. The protein pellets were washed twice with 1 mL cold acetone and air dried. The protein extracts were solubilized in urea 8 M, reduced with 5 mM TCEP for 30 min, and alkylated with 10 mM iodoacetamide for 30 min in the dark. Double digestion was performed at 37 °C with 500 ng endoproteinase Lys-C for 4 h, followed by fourfold dilution and an overnight digestion with 500 ng trypsin. Peptide mixtures were then desalted on C18 spin-column and dried on Speed-Vacuum.
(§4) Samples were analyzed using an Ultimate 3000 nano-RSLC (Thermo Scientific, San Jose California) coupled in line with a LTQ-Orbitrap ELITE mass spectrometer via a nano-electrospray ionization source (Thermo Scientific, San Jose California). Peptide mixtures were injected in 0.1% TFA on a C18 Acclaim PepMap100 trap-column (75 µm ID × 2 cm, 3 µm, 100 Å, Thermo Fisher Scientific) for 3 min at 5 µL/min with 2% ACN, 0.1% FA in H2O and then separated on a C18 Accucore nano-column (75 µm ID × 50 cm, 2.6 µm, 150 Å, Thermo Fisher Scientific) at 220 nl/min and 38 °C with a 90 min linear gradient from 5% to 30% buffer B (A: 0.1% FA in H2O/B: 99% ACN, 0.1% FA in H2O), regeneration at 5% B. The mass spectrometer was operated in positive ionization mode, in data-dependent mode with survey scans from m/z 350–1500 acquired in the Orbitrap at a resolution of 120,000 at m/z 400. The 20 most intense peaks from survey scans were selected for further fragmentation in the Linear Ion Trap with an isolation window of 2.0 Da and were fragmented by CID with normalized collision energy of 35%. (TOP20CID method) Unassigned and single charged states were excluded from fragmentation. The Ion Target Value for the survey scans (in the Orbitrap) and the MS2 mode (in the Linear Ion Trap) were set to 1E6 and 5E3 respectively and the maximum injection time was set to 100 ms for both scan modes. Dynamic exclusion was set to 20 s after one repeat count with mass width at ±10 ppm. […]

HeLa cell extract preys = assay: PDZ-AP-MS, biotinylated MBP-PDZ baits; type: binding, human; conditions: for Ratio: fold enrichment of prey; for Difference: log2 enrichment of prey
Procedure: as §1, §2, §3, §4

SYNJ2BP PDZ = target: T3, SYNJ2BP PDZ (Homo sapiens, UniProt P57105); assay: Holdup assay; type: binding
T3 sequence (P57105 13-100 limits assumed): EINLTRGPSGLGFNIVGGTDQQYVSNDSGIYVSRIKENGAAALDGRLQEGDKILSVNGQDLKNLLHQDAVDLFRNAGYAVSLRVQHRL

[1] = test system: Jurkat cell extract preys; assay: PDZ-AP-MS, biotinylated MBP-PDZ baits; type: binding, human; conditions: for Difference log2: enrichment of prey
Procedure: as §1, §2, §3, §4

[2] = PBM motif of the named protein vs DLG1_2 PDZ, read-out: pKd values – domain-motif, DLG1_2 (converted)
[3] = PBM motif of the named protein vs DLG1_1 PDZ, read-out: pKd values – domain-motif, DLG1_1 (converted)
[4] = PBM motif of the named protein vs SCRIB_1 PDZ, read-out: pKd values – domain-motif, SCRIB_1 (converted)
[5] = PBM motif of the named protein vs TX1BP3 PDZ, read-out: pKd values – domain-motif, TX1BP3 (converted)
[6] = PBM motif of the named protein vs SCRIB_2 PDZ, read-out: pKd values – domain-motif, SCRIB_2 (converted)
[7] = bait SCRIB_2 PDZ, fold change of prey
[8] = holdup affinity of the PBM peptide of the named protein, sheet PBMcomplexome, lower sub-table
[9] = holdup affinity of the PBM peptide of the named protein, sheet PBMcomplexome, lower sub-table, 3.5 appears to be the floor for no detectable binding, read-out: affinity of PBM to DLG1_2 (pKd) (converted)
[10] = holdup affinity of the PBM peptide of the named protein, sheet PBMcomplexome, lower sub-table, 3.5 appears to be the floor for no detectable binding, read-out: affinity of PBM to TX1BP3 (pKd) (converted)
[11] = bait SCRIB_1 PDZ, fold change of prey

SCRIB_1 PDZ, sequence (Q14160 728-815 limits assumed): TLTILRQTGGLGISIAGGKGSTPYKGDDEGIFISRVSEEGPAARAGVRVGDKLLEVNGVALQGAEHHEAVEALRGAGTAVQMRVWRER
DLG4_3 PDZ, sequence (P78352 313-393 limits assumed): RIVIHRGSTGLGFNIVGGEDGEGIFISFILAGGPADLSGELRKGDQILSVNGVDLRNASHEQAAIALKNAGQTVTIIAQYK
MAGI2_2 PDZ, sequence (Q86UL8 426-510 limits assumed): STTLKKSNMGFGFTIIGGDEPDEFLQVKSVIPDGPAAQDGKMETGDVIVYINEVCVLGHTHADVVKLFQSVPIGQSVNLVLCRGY

## CC(C)C[C@H](NC(=O)[C@H](CCC(N)=O)NC(=O)[C@@H](NC(=O)[C@H](CCC(=O)O)NC(=O)[C@H](CCC(=O)O)NC(=O)[C@H](CCCNC(=N)N)NC(=O)[C@H](CO)NC(=O)[C@H](CC(=O)O)NC(=O)[C@H](CCC(N)=O)NC(=O)CNC(=O)CCC(=O)NCCCOCCOCCOCCCNC(=O)CCCC[C@@H]1SC[C@@H]2NC(=O)N[C@@H]21)[C@@H](C)O)C(=O)O [KCNT2] ({X1-Suc}-GQDSREETQL-OH)
MAGI2_2 PDZ
  Kd: 248 µM
DLG4_3 PDZ
  Kd: 241 µM

## ATKDKKITTV [EXOC4]
SNX27 PDZ
  Kd: 41.7 µM
DLG1_2 PDZ; [2]
  Kd: 1.23 µM
DLG1_1 PDZ; [3]
  Kd: 8.91 µM
SCRIB_1 PDZ; [4]
  Kd: 141 µM
TX1BP3 PDZ; [5]
  Kd: 123 µM
SCRIB2 PDZ; [6]
  Kd: 324 µM

## EKQAKGDTEF [CACYBP]
SNX27 PDZ
  Kd: 209 µM

## EPRS1
HaCat cell extract preys; bait SCRIB_2 PDZ vs MBP
  Difference log2: 4.198
HaCat cell extract preys; [7]
  Ratio SCRIB_2/MBP: 18.3552

## GFGEERESIL [KIDINS220]
SNX27 PDZ; [8]
  Kd: 2.57 µM
DLG1_2 PDZ; [9]
  Kd: 132 µM
TX1BP3 PDZ; [10]
  Kd: 186 µM

## IDNDTESTAL [ARHGAP17]
SNX27 PDZ
  Kd: 10.7 µM
SCRIB_1 PDZ; [4]
  Kd: 12.3 µM
SCRIB2 PDZ; [6]
  Kd: 245 µM

## IQREDQETAV [DGKZ]
SNX27 PDZ; [8]
  Kd: 1 µM
DLG1_2 PDZ; [9]
  Kd: 6.92 µM
DLG1_1 PDZ; holdup affinity of the PBM peptide of the named protein, sheet PBMcomplexome, lower sub-table, 3.5 appears to be the floor for no detectable binding, read-out: affinity of PBM to DLG1_1 (pKd) (converted)
  Kd: 18.6 µM
SCRIB_1 PDZ; holdup affinity of the PBM peptide of the named protein, sheet PBMcomplexome, lower sub-table, 3.5 appears to be the floor for no detectable binding, read-out: affinity of PBM to SCRIB_1 (pKd) (converted)
  Kd: 19.5 µM
TX1BP3 PDZ; [10]
  Kd: 66.1 µM
SCRIB2 PDZ; holdup affinity of the PBM peptide of the named protein, sheet PBMcomplexome, lower sub-table, 3.5 appears to be the floor for no detectable binding, read-out: affinity of PBM to SCRIB_2 (pKd) (converted)
  Kd: 13.8 µM

## KKYVDAETSL [SLC4A7]
SNX27 PDZ
  Kd: 1.95 µM
DLG1_2 PDZ; [2]
  Kd: 275 µM
SCRIB_1 PDZ; [4]
  Kd: 2.88 µM
TX1BP3 PDZ; [5]
  Kd: 151 µM
SCRIB2 PDZ; [6]
  Kd: 170 µM

## LSEFKAMDSI [CTNNA1]
TX1BP3 PDZ; [5]
  Kd: 339 µM

## PLEC
HeLa cell extract preys; bait TX1BP3 PDZ vs MBP control
  Ratio: 24.4238
  Difference: 4.61

## QPRTWLQSPV [RTKN]
SNX27 PDZ
  Kd: 49 µM
DLG1_2 PDZ; [2]
  Kd: 50.1 µM
DLG1_1 PDZ; [3]
  Kd: 182 µM
SCRIB_1 PDZ; [4]
  Kd: 204 µM
TX1BP3 PDZ; [5]
  Kd: 0.891 µM

## QRQARSETLV [HPV59E6]
SYNJ2BP PDZ
  Kd: 15.4 µM

## SCRIB
HaCat cell extract preys; bait SCRIB_1 PDZ vs MBP
  Difference log2: 13.0145
HaCat cell extract preys; [11]
  Ratio SCRIB_1/MBP: 8274.77
HeLa cell extract preys; bait SCRIB_2 PDZ (biotinylated MBP-PDZ) vs MBP control
  Difference: 6.449
HeLa cell extract preys; bait SCRIB_2 PDZ vs MBP control
  Ratio: 87.3698
[1]; bait SCRIB_1 PDZ vs MBP
  Difference log2: 8.3787
[1]; [11]
  Ratio SCRIB_1/MBP: 332.843
[1]; bait SCRIB_2 PDZ vs MBP
  Difference log2: 8.333
[1]; [7]
  Ratio SCRIB_2/MBP: 322.542

## SEKHFRETEV [HTLV1 Tax1]
SYNJ2BP PDZ
  Kd: 0.912 µM

## SRPHTNETSL [MCC]
SNX27 PDZ
  Kd: 1.91 µM
DLG1_2 PDZ; [2]
  Kd: 64.6 µM
DLG1_1 PDZ; [3]
  Kd: 191 µM
SCRIB_1 PDZ; [4]
  Kd: 5.5 µM
TX1BP3 PDZ; [5]
  Kd: 75.9 µM
SCRIB2 PDZ; [6]
  Kd: 52.5 µM

## TVASEKESVM [SLC1A5]
SNX27 PDZ
  Kd: 5.13 µM
SCRIB_1 PDZ; [4]
  Kd: 6.31 µM
TX1BP3 PDZ; [5]
  Kd: 204 µM

## VKPQVSESKL [ACOT8]
SNX27 PDZ
  Kd: 4.57 µM
SCRIB_1 PDZ; [4]
  Kd: 47.9 µM
SCRIB2 PDZ; [6]
  Kd: 302 µM
